Test results reported in patent publication US20170128412A1, “SYSTEM AND METHOD FOR IMPROVED BLOOD CIRCULATION AND MAINTAINING MITOCHONDRIAL ENERGY PRODUCTION” (priority 2015, published 2017).

Assays:
[1] = Linoleate peroxidative reaction inhibition (AAPH, linoleate micellar solution); type: biochemical; conditions: for inhibition rate for linoleate hydroperoxide generation: as stated in the description ("Studies indicate"); for Inhibition rate (%): specimen 25 μM
Protocol: Chart 4 indicates the linoleate peroxidative reaction inhibition action of tocotrienol, a-tocopherol, and Coenzyme Q10. The linoleate micellar solution comprised 300mM linoleate, 5 mM 2,2′-Azobis(2-amidinopropane) dihydrochloride (AAPH), and a specimen (tocotrienol, α-tocopherol, or Coenzyme Q10) dissolved in 0.3% Lubrol Px—20 mM sodium phosphate buffer (pH 7.4). The reaction composition reacted at room temperature for one hour, and then 0.5 ml of methanol was added to the composition, and then 2.0 ml of 70% methanol was added to the composition. The absorbance measurement was conducted at 234 nm.

[2] = DPPH radical removal ability; type: biochemical; conditions: for IC50: DPPH radical removal
Protocol: Chart 3 indicates the diphenylpicrylhydrazl (DPPH) radical removal ability of torolox, tocotrienol, α-tocopherol, and coenzyme Q10. The reaction composition was carried out in a DPPH solution comprising 8 mg DPPH per 100 ml of 50% ethanol. The total reaction composition comprised 0.2 ml of the specimen (torolox, tocotrienol, α-tocopherol, or coenzyme Q10) and 1.8 ml of the aforementioned DPPH solution. The total reaction composition reacted at room temperature in a dark place for 30 minutes. The absorbance measurement was carried out at 517 nm.

Row | IC50 [2] [µM] | Molecule | Linoleate peroxidation inhibition, result in words [1] | inhibition rate for linoleate hydroperoxide generation [1] | DPPH inhibition, result in words [2] | Inhibition rate (%) ([2]; specimen 25 μM) | Inhibition rate (%) ([2]; specimen 50 μM) | Inhibition rate (%) ([2]; specimen 100 μM) | Inhibition rate (%) [1] [%]
1 | – | COC1=C(OC)C(=O)C(C/C=C(\C)CC/C=C(\C)CC/C=C(\C)CC/C=C(\C)CC/C=C(\C)CC/C=C(\C)CC/C=C(\C)CC/C=C(\C)CC/C=C(\C)CCC=C(C)C)=C(C)C1=O [Coenzyme Q10, coenzyme Q10] | did not exhibit inhibition action | no such inhibition | did not exhibit inhibition action | <0 | <0 | <0 | –
2 | 43.8 | Cc1c(C)c2c(c(C)c1O)CCC(C)(C(=O)O)O2 (centres unmarked) [Torolox, torolox] | – | – | – | 19.1 | 48.2 | 94.9 | –
3 | 51.1 | Cc1c(C)c2c(c(C)c1O)CC[C@@](C)(CCC[C@H](C)CCC[C@H](C)CCCC(C)C)O2 [α-Tocopherol, α-tocopherol] | – | – | – | 15.2 | 41 | 87.6 | 42.2
4 | 55 | tocotrienol | inhibition at the same level as a-tocopherol | about 40% | approximately the same level as a-tocopherol | 16.3 | 41 | 79.8 | 42.2
